Results taken from US20130190345A1, “MATRINIC ACID/MATRINE DERIVATIVES AND PREPARATION METHODS AND USES THEREOF” (priority 2010, published 2013).
In brackets after ≈: the same amount, converted by molar mass.

Columns and labels:
Assay type in all cases: cell-based
2.2.15 cells = experiment: Drug TC50 by MTT detection; settings: Reed-Muench
Method: 2.2.15 cells (all cells were purchased from Vertex Pharmaceutical Co., USA) in exponential growth phase were inoculated on 96-well culture plate, 2×10^5 cells/well, added with culture media containing PFA diluted in different concentration rates, 3 wells for each diluted concentration, placed in 37° C. CO2—containing incubator and cultivated for 48 h; the supernatant was discarded, 100 μl of MTT (0.5 mg/ml) in culture medium was added, cultivation was continuously performed at 37° C. for 4 h; each well was added to 100 μl of 50% DMF-20% SDS destaining solution, stood at 37° C. overnight; ELISA was used to measure optical density at wavelength of 570 nm (0D570).
In each experiment, 3 cell control wells and 3 blank controls well were set, the results were used in formula, (cell control OD570-drug-medicated cell OD570)/cell control OD570, to calculate cell death rate (%), and Reed-Muench method was used to calculate half toxic concentration TC50.

Hsc70 [1] = experiment: Detection of Hsc70 gene expression level upon action of compound on 2.2.15 cells (real-time fluorescent quantified PCR); parameters: Hsc70 mRNA / Hsc70 down-regulation rate (%): unit not given here; settings: for Hsc70 inhibition rate (down-regulation of Hsc70 expression activity, expressed in relative OMT ratio): 2.2.15 cells, relative to OMT (= 1); for Hsc70 down-regulation rate (%): single value, concentration not given, values coincide with Table 1 relative OMT ratios
Method: 2.2.15 cells (purchased from Vertex Pharmaceutical Co., USA) in a number of 1×10^6 were inocubated to 6-well plate, cultured in a culture medium containing 10% fetal calf serum for 24 hr, the original culture medium was discarded, replaced with a culutre medium containing 400 μg/ml OMTR, which was used as control. Compounds were firstly dissolved in MEM to form 20 mg/ml mother liquid, which was diluted with culture medium when used and then applied to cells. The compounds of Examples 1-114 were separately used for treatment for 12, 24, 36 hr, then cells were harvested for extraction of RNA and DNA, then the changes of Hsc70 mRNA and HBV DNA were detected by real-time fluorescent quantified PCR.

Hsc70 [2] = experiment: Inhibition effects of compound on Hsc70 in Huh7.5 cultured cell (qRT-PCR, Western blotting); parameters: key to Hsc70 down-regulation rate (%): “—” represents no significant inhibition rate
Method: 2×10^5/ml Huh7.5 cells (purchased from Vertex Pharmaceutical Co., USA) were inoculated in an amount of 3 ml on 6-well culture plate, placed in an incubator with 37° C., 5% CO2 content, saturation humidity, and cultured for 24 h, added with different drug solutions (DM122) formulated with culture medium, and cell control was set. Cultivation was continuously performed in the incubator with 37° C., 5% CO2 content, saturation humidity for 24 h, a kit for RNA extraction was used to extract intracellular RNA from the cells, and one-step qRT-PCR was used to determine intracellular contents of Hsc70 and GAPDHRNA. After the cultivation of cells was performed for 48 h, the cells were digested and harvested, then the cells were split with CytoBuster™ Protein Extraction Buffer that contained many kinds of protease inhibitors, total intracellular proteins were extracted, and Western blotting was used to analyze the contents of Hsc70 and GAPDH proteins. In comparison with the cell control, the inhibition effects on Hsc70 upon action of different drugs were analyzed.

HCV = experiment: Inhibition effects of compounds on HCV in Huh7.5 cultured cell after HCV infection; settings: for EC50 (half effective concentration): virus not given, stands beside HCV inhibition rate
Method: 1×10^5/ml Huh7.5 cells (purchased from Vertex Pharmaceutical Co., USA) were inoculated in an amount of 0.1 ml on 96-well culture plate, placed in an incubator with 37° C., 5% CO2 content and saturation humidity, and cultured for 24 h, HCV virus in 45 IU/cell was used to infect Huh7.5, different drug solutions (DM122) formulated with culture medium were added, and cell control and HCV infection control were set. Cultivation was continuously performed in the incubator with 37° C., 5% CO2 content and saturation humidity for 72 h, kit for RNA extraction was used to extract intracellular RNA, one-step qRT-PCR was used to determine intracellular contents of HCV and GAPDH RNA, and the inhibition effects of drug on HCV infection was analyzed. […] In comparison with the virus control group, the inhibition effects on HCV infection upon action of different drugs were analyzed. […] This experiment was repeated for 3 times, * indicated […] in comparison with control, ** indicated p<0.01 in comparison with control.

Compound	CC50 (concentration to cause poisoning in half cells) (2.2.15 cells) [µg/mL]	Hsc70 inhibition rate (down-regulation of Hsc70 expression activity, expressed in relative OMT ratio) (Hsc70 [1])	Hsc70 down-regulation rate (%) (Hsc70 [2]; 200 ug/ml (upper data))	Hsc70 down-regulation rate (%) (Hsc70 [2]; 400 ug/ml (lower data))	HCV inhibition rate (%) (HCV; 200 ug/ml (upper data))	HCV inhibition rate (%) (HCV; 400 ug/ml (lower data))	EC50 (half effective concentration) (HCV) [µg/mL]	Hsc70 down-regulation rate (%) (Hsc70 [1])
Cc1ccccc1CN1CC2CCCN3CCCC(C1CCCC(=O)O)C23 (stereo not shown) [DM-138, N-(2-methylbenzyl) matrinic acid]	418.3 (≈ 1130 µM)	1.35	34.8 ± 2.1%	21.1 ± 12.0%	91.5 ± 7.4	95.1 ± 2.9	82.49 (≈ 223 µM)	
O=C(O)CCCC1C2CCCN3CCCC(CN1Cc1cccc(F)c1)C23 (stereo not shown) [DM-133, N-(3-fluorobenzyl) matrinic acid]	527.8 (≈ 1410 µM)	0.81	—	—	96.4 ± 0.8	98.6 ± 0.8	67.33 (≈ 180 µM)	
COc1ccc(S(=O)(=O)N2CC3CCCN4CCCC(C34)C2CCCC(=O)O)cc1 (stereo not shown) [DM-103, N-(4-methoxybenzenesulfonyl) matrinic acid]	>1000		74.8 ± 5.6%	—	69.1 ± 14.5	91.4 ± 1.8	135.71 (≈ 311 µM)	
O=C(O)CCC[C@@H]1[C@H]2CCCN3CCC[C@@H](CN1Cc1ccc(OC(F)(F)F)cc1)[C@@H]23 [DM-162, N-(4-trifluoromethoxybenzyl) matrinic acid]	431.6 (≈ 980 µM)		—	—	96.2 ± 0.3	99.1 ± 0.1	34.06 (≈ 77.3 µM)	
O=C(O)CCCC1C2CCCN3CCCC(CN1Cc1ccccc1Cl)C23 (stereo not shown) [DM-124, N-(2-chlorobenzyl) matrinic acid]	504.6 (≈ 1290 µM)	0.32					68.27 (≈ 175 µM)	0.32
O=C(O)CCCC1C2CCCN3CCCC(CN1Cc1ccc(F)cc1)C23 (stereo not shown) [DM-132, N-(4-fluorobenzyl) matrinic acid]	903.2 (≈ 2410 µM)	0.99	80.1 ± 5.7%	32.8 ± 26.8%	67.7 ± 5.8	82.7 ± 5.6	52.86 (≈ 141 µM)	
O=C(O)CCC[C@@H]1[C@H]2CCCN3CCC[C@@H](CN1Cc1ccc(Cl)c(Cl)c1)[C@@H]23 [DM-127, N-(3,4-dichlorobenzyl) matrinic acid]	427.8 (≈ 1010 µM)	−2.92					113.64 (≈ 267 µM)	−2.92
O=C(O)CCCC1C2CCCN3CCCC(CN1Cc1ccc(Cl)cc1)C23 (stereo not shown) [DM-126, N-(4-chlorobenzyl) matrinic acid]	>1000	0.62					21.11 (≈ 54 µM)	0.62
O=C(O)CCC[C@@H]1[C@H]2CCCN3CCC[C@@H](CN1Cc1ccccc1F)[C@@H]23 [DM-135, N-(2-fluorobenzyl)matrinic acid]	620.68 (≈ 1660 µM)	0.41	0.1 ± 5.6%	—	74.3 ± 8.2	90.5 ± 2.0	29.86 (≈ 79.7 µM)	
Cc1cccc(CN2CC3CCCN4CCCC(C2CCCC(=O)O)C34)c1 (stereo not shown) [DM-139, N-(3-methylbenzyl) matrinic acid]	885.1 (≈ 2390 µM)	1.39	20.5 ± 24.8%	—	88.5 ± 4.8	98.1 ± 1.0	98.65 (≈ 266 µM)	
N#Cc1ccc(CN2C[C@@H]3CCCN4CCC[C@@H]([C@H]34)[C@H]2CCCC(=O)O)cc1 [DM-134, N-(4-cyanobenzyl) matrinic acid]	>1000	0.57					52.18 (≈ 137 µM)	0.57
Cc1ccc(C(=O)N2CC3CCCN4CCCC(C34)C2CCCC(=O)O)cc1 [Compound L7, (5R)—N-(p-methylbenzoyl)matrinic acid]	>1000		63.3 ± 1.2%	—	89.5 ± 2.0	95.7 ± 1.1	291.73 (≈ 759 µM)	
O=C(O)CCCC1C2CCCN3CCCC(CN1Cc1ccc(Br)cc1)C23 (stereo not shown) [DM-128, N-(4-bromobenzyl) matrinic acid]	535.1 (≈ 1230 µM)	−5.78					51.66 (≈ 119 µM)	−5.78
Cc1ccc([N+](=O)[O-])cc1C(=O)N1C[C@@H]2CCCN3CCC[C@@H]([C@H]23)[C@H]1CCCC(=O)O [DM-131, N-(2-methyl-5-nitrobenzoyl) matrinic acid]	>1000	−0.86					89.31 (≈ 208 µM)	−0.86
O=C(O)CCCC1C2CCCN3CCCC(CN1Cc1ccccn1)C23 (stereo not shown) [DM-143, N-(pyridin-2-yl) methyl matrinic acid]	374.5 (≈ 1050 µM)	1.1					12.46 (≈ 34.9 µM)	1.1
O=C(O)CCCC1C2CCCN3CCCC(CN1Cc1cccc(Cl)c1Cl)C23 (stereo not shown) [DM-129, N-(2,3-dichlorobenzyl) matrinic acid]	245.5 (≈ 577 µM)	0.27					192.02 (≈ 451 µM)	0.27
N-(4-ethenyl benzyl) matrinic acid [DM-136]	70.49	0.76					1.80	0.76
O=C(O)CCCC1C2CCCN3CCCC(CN1Cc1cccc(Cl)c1)C23 (stereo not shown) [DM-125, N-(3-chlorobenzyl) matrinic acid]	>1000	<10					34.35 (≈ 87.9 µM)	−67.97
O=C(O)CCC[C@@H]1[C@H]2CCCN3CCC[C@@H](CN1Cc1cscn1)[C@@H]23 [DM-146, N-(thiazol-4-yl)methyl matrinic acid]	>1000	0.92					63.99 (≈ 176 µM)	0.92
